Source: patent US20080287398A1, “COLD MENTHOL RECEPTOR-1 ANTAGONISTS” (priority 2007, published 2008)

Columns and labels:
canine TRPM8 = target: T1, canine TRPM8 (Canis lupus familiaris, UniProt Q1A7N1); experiment: In vitro canine TRPM8 functional assay (Ca2+-sensitive dye, FLIPR/FDSS, icilin activation); assay type: cell-based; details: HEK293 cells expressing canine TRPM8, icilin activation; for inhibition at 0.5 µM: HEK293, 0.5 μM compound, read-out: % I (0.5 μM); for IC50: eight-point dose-response, read-out: IC50
T1 construct: expressed in transfected cells
Outline: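 HEK293 cells stably expressing canine TRPM8, loaded with Calcium 3 dye, preincubated with compound for 5 min before icilin at a concentration giving ~80% maximal response. Ca2+ fluorescence by FLIPR or FDSS; basal-subtracted, normalized to % maximal response, quadruplicate wells, sigmoidal fit for EC50/IC50.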

male SD rats = experiment: Chronic constriction injury (CCI) model of neuropathic pain, acetone-induced hypersensitivity; assay type: in vivo; details: rat; for ED50: po
Procedure: Through the mesh floor a series of five applications of acetone (0.05 mL/application) was sprayed onto the bottom of the paw using a multidose syringe device. A positive response took the form of an abrupt withdrawal or lifting of the paw. The percentage of positive responses from the five trials represented the individual's overall response that was then averaged over the entire treatment group. […] An ascending dose response relationship (as in Table 10 below) was generated by addition of successive doses of test compound followed by re-assessment of behavior.

rat TRPM8 = target: T2, rat TRPM8 (Rattus norvegicus, UniProt Q8R455); experiment: In vitro rat TRPM8 functional assay (Ca2+ dye, FDSS, 100 nM icilin); assay type: cell-based; details: HEK293 cells transiently transfected with rat TRPM8, read-out: rTRPM8 IC50
T2 construct: the full-length cDNAs encoding human and rat TRPM8 were subcloned; expressed in transfected cells; host or cells: HEK293 (transient, FuGENE 6, pCI-NEO vector)
Procedure: (§1) For functional expression of TRPM8, the full-length cDNAs encoding human and rat TRPM8 were subcloned into pCl-NEO mammalian expression vectors. The expression constructs were transiently transfected into HEK293 cells according to the FuGENE 6 transfection reagent® (ROCHE) instructions. HEK293 cells were routinely grown as monolayers in Dulbecco's minimum essential medium supplemented with 10% FBS, 1 mM L-glutamine, 100 units/mL penicillin and 100 ug/mL streptomycin. Cells were maintained in 5% CO2 at 37° C. […] Following incubation, plates were inserted into a FDSS instrument, where cells were challenged with a compound of Formula (I) (at varying concentrations) and intracellular Ca^2+ was measured for 5 min prior to the addition of 100 nM icilin. IC50 values for compounds of the present invention were determined from eight-point dose-response studies
(§2) Maximal fluorescence intensity (FI) achieved upon addition of icilin was exported from the FDSS and further analyzed using GraphPad Prism 3.02 (Graph Pad Software Inc., CA, U.S.A.). […] The dose response curves from the average of quadruplicate wells for each data point were analyzed by using nonlinear regression of either sigmoidal dose response or sigmoidal dose response (variable slope). Finally, the IC50 values were calculated with the best-fit dose curve determined by Prism.

human TRPM8 = target: T3, human TRPM8 (Homo sapiens, UniProt Q7Z2W7); experiment: In vitro human TRPM8 functional assay (Ca2+ dye, FDSS, 100 nM icilin); assay type: cell-based; details: HEK293 cells transiently transfected with human TRPM8, read-out: hTRPM8 IC50
T3 construct: the full-length cDNAs encoding human and rat TRPM8 were subcloned; expressed in transfected cells; host or cells: HEK293 (transient, FuGENE 6, pCI-NEO vector)
Procedure: as §1, §2

T1 sequence (Q1A7N1 1-1104): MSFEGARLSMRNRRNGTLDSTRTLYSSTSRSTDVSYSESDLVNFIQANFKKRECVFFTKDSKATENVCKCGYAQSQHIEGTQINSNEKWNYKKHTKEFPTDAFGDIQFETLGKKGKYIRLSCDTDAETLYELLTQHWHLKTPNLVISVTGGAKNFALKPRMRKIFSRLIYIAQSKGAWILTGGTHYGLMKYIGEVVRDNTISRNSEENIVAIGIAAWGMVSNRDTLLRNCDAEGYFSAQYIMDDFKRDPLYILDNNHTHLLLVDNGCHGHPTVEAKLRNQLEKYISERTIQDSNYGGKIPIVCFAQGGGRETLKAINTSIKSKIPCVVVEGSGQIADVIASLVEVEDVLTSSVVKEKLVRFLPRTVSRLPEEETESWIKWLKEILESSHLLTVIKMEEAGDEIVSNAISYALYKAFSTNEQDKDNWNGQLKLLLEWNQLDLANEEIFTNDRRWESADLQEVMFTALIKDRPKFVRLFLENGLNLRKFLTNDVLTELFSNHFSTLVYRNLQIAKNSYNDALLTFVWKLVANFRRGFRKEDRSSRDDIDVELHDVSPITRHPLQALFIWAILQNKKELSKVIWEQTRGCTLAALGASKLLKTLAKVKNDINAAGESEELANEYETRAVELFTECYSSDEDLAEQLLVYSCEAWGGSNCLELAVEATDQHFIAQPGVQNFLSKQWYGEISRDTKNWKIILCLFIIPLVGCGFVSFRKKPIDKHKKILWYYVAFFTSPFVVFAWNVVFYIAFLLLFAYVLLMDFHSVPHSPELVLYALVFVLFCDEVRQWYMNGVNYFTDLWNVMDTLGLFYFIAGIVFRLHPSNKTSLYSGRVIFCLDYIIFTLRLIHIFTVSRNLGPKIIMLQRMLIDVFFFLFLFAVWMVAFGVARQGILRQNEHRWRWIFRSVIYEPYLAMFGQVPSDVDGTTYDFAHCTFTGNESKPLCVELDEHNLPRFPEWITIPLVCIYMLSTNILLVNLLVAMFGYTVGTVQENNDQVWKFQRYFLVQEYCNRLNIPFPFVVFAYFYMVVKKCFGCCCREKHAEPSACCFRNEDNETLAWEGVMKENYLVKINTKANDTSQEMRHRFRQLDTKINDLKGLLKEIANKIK
T2 sequence (Q8R455 whole entry): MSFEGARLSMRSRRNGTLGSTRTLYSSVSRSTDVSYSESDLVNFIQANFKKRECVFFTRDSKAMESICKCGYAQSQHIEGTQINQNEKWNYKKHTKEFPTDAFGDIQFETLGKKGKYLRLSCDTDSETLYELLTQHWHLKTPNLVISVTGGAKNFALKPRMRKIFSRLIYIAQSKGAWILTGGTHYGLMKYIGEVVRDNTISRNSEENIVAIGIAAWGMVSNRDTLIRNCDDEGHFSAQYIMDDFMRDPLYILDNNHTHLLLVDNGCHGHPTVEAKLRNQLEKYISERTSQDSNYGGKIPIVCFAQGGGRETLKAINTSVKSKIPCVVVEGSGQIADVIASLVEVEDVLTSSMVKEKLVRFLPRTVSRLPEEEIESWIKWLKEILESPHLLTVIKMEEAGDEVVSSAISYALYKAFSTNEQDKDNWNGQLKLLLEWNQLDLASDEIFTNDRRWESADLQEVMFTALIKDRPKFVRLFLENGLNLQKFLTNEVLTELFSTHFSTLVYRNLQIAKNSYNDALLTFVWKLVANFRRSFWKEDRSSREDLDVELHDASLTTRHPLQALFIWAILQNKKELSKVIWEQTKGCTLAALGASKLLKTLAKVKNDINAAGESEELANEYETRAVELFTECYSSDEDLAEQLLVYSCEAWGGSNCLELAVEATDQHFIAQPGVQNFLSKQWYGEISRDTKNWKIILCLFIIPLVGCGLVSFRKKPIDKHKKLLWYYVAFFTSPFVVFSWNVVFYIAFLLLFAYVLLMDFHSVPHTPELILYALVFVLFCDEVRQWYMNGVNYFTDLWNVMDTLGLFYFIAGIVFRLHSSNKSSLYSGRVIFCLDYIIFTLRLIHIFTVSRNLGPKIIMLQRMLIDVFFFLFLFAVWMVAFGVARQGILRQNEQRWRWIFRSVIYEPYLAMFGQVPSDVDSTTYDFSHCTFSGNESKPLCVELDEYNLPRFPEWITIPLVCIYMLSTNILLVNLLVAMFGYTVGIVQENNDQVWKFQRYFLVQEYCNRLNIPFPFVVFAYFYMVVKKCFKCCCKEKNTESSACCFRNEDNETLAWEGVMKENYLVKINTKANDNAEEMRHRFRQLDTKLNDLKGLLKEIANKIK
T3 sequence (Q7Z2W7 whole entry): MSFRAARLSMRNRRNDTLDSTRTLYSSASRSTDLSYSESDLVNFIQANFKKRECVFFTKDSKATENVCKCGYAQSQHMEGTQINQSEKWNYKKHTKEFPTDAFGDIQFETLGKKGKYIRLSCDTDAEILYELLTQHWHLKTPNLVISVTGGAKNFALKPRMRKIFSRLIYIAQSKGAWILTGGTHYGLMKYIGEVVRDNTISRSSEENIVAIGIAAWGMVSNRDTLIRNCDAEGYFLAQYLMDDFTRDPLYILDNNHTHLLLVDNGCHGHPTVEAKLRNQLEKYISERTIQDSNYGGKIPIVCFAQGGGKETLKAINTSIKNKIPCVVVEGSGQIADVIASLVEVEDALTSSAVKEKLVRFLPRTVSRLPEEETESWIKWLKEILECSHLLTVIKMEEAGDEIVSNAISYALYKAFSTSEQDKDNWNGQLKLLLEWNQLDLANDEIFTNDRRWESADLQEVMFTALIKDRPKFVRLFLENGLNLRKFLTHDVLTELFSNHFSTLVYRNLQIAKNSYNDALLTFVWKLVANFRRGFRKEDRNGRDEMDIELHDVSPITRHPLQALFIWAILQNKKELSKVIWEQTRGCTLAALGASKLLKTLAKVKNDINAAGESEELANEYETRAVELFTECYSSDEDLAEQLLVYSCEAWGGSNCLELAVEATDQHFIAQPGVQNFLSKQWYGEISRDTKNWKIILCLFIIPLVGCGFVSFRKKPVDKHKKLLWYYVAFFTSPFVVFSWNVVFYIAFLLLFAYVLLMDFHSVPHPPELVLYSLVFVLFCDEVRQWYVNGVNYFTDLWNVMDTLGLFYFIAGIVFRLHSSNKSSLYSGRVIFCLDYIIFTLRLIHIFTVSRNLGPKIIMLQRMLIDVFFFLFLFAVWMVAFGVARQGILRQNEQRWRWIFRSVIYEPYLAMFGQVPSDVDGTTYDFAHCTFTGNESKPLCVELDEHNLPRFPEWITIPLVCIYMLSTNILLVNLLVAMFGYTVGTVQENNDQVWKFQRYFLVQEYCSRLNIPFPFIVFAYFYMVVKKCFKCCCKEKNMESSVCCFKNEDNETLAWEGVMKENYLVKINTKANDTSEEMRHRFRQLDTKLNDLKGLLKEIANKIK

SMILES | inhibition at 0.5 µM (canine TRPM8) [%] | IC50 (canine TRPM8) [nM] | ED50 (male SD rats; preRx 3 hr) [mg/kg] | % of Allodynic Baseline (male SD rats; 3 mg/kg p.o., preRx 3 hr) [%] | % of Allodynic Baseline (male SD rats; 10 mg/kg p.o., preRx 3 hr) [%] | % of Allodynic Baseline (male SD rats; 30 mg/kg i.p., preRx 2 hr) [%] | % of Allodynic Baseline (male SD rats; 30 mg/kg p.o., preRx 3 hr) [%] | % of Allodynic Baseline (male SD rats; 100 mg/kg p.o., preRx 3 hr) [%] | IC50 (rat TRPM8) [nM] | IC50 (human TRPM8) [nM] | ED50 (male SD rats; preRx 1 hr) [mg/kg] | % of Allodynic Baseline (male SD rats; 3 mg/kg p.o., preRx 1 hr) [%] | % of Allodynic Baseline (male SD rats; 3 mg/kg p.o., preRx 2 hr) [%] | % of Allodynic Baseline (male SD rats; 10 mg/kg p.o., preRx 1 hr) [%] | % of Allodynic Baseline (male SD rats; 30 mg/kg p.o., preRx 1 hr) [%] | % of Allodynic Baseline (male SD rats; 30 mg/kg p.o., preRx 2 hr) [%] | % of Allodynic Baseline (male SD rats; 100 mg/kg p.o., preRx 1 hr) [%] | % of Allodynic Baseline (male SD rats; 100 mg/kg p.o., preRx 2 hr) [%]
CC(C)OP(=O)(OC(C)C)[C@@H](Cc1ccc(F)c(C(F)(F)F)c1)c1sc2ccccc2c1Br [Cpd 242, (S)-[1-(3-Bromo-benzo[b]thiophen-2-yl)-2-(4-fluoro-3-trifluoromethyl-phenyl)-ethyl]-phosphonic acid diisopropyl ester] | 103 | 9 | 18 | 15.0 | 30.0 | 63.3 | 66.7 | 86.7 | 0.056 | 0.049 |  |  |  |  |  |  |  | 
CC(C)OP(=O)(OC(C)C)[C@@H](Cc1ccc(F)c(F)c1)c1sc2ccccc2c1Br [Cpd 234, (S)-[1-(3-Bromo-benzo[b]thiophen-2-yl)-2-(3,4-difluoro-phenyl)-ethyl]-phosphonic acid diisopropyl ester] | 104 | 29 |  |  |  |  |  |  | 0.053 | 0.054 | 14.8 | 16.7 | 10.0 | 51.7 | 59.6 | 56.7 | 83.1 | 93.3
